According to patent US7691966B2, “Method for quantitative analysis for prolyl hydroxylase activity using fluorescence polarization” (Korea Institute of Science and Technology, priority 2005, dated 2010):

Columns and labels:
VBC protein [1] = target: T1, VBC protein (Homo sapiens, UniProt P40337); test: Fluorescence polarization competition assay for inhibitors of F-HyP564 peptide-VBC protein binding; settings: 100 nM F-HyP564, 500 nM VBC, competitor 0 to 500 μM
T1 construct: made in house; host or cells: E. coli BL21 (DE3)
Description: (§1) Fluorescence polarization changes were measured during the formation of protein-ligand complex of VBC protein and the above peptides prepared in Example 1, to investigate binding capacity and characteristics thereof. Fluorescence polarization was measured by using fluorometer (Perkin-Elmer), and the size of slit was 5 nm and integration time was 5 seconds. A buffer solution containing 50 mM Tris and 120 mM NaCl, pH 8.0, was supplemented with NP-40 (nonidet P40) by 0.5%, for being utilized for the experiments of binding and interaction.
Fluorescence polarization of the reaction solution was measured.
After mixing, fluorescence polarization changes were measured.

VBC protein [2] = target: T1, VBC protein; test: Fluorescence polarization binding of fluorescent labeled HIF-1 peptide to VBC protein
From the text: Human von Hippel-Lindau gene fragment (corresponding to 54˜213 a.a. region of the amino acid sequence represented by GenBank Accession No: NM000551) and human Elongin B fragment (corresponding to 1˜118 a.a. region of the amino acid sequence represented by GenBank Accession No: NM007108) were inserted into a modified pGEX-4T-1, resulting in plasmid pGEX4T-VHL-EB. Likewise, human Elongin C fragment (corresponding to 17˜112 a.a. region of the amino acid sequence represented by GenBank Accession No: NM005648) was inserted into pET29b vector, resulting in plasmid PDEV-EC (Novagen). The plasmids were co-expressed massively in E. coli BL21 (DE3) (Novagen).
as §1
After mixing, fluorescence polarization was measured.

| Compound | fluorescence polarization change on addition of competitor peptide (VBC protein [1]) | also measured |
| --- | --- | --- |
| CC[C@H](C)[C@H](NC(=O)[C@H](Cc1ccc(O)cc1)NC(=O)[C@@H]1C[C@@H](O)CN1C(=O)[C@H](C)NC(=O)[C@H](CC(C)C)NC(=O)[C@H](C)N)C(=O)N1CCC[C@H]1C(=O)N[C@@H](C)C(=O)O [Hy-N fragment, ALAHyPYIPA] | remarkably decreased |  |
| CC[C@H](C)[C@H](NC(=O)[C@H](Cc1ccc(O)cc1)NC(=O)[C@@H]1C[C@@H](O)CN1C(=O)[C@H](C)NC(=O)[C@H](CC(C)C)NC(=O)[C@H](C)NC(=O)[C@H](CCC(=O)O)NC(=O)[C@H](CC(C)C)NC(=O)[C@H](CC(=O)O)NC(=O)[C@H](CC(C)C)NC(=O)[C@H](CC(=O)O)NC(=O)CCCCCNC(=S)Nc1ccc2c(c1)C(=O)OC21c2ccc(O)cc2Oc2cc(O)ccc21)C(=O)N1CCC[C@H]1C(=O)N[C@@H](C)C(=O)N[C@@H](CC(=O)O)C(=O)N[C@@H](CC(=O)O)C(=O)N[C@@H](CC(=O)O)C(=O)N[C@@H](Cc1ccccc1)C(=O)N[C@@H](CCC(N)=O)C(=O)N[C@@H](CC(C)C)C(=O)N[C@@H](CCCNC(=N)N)C(=O)O [F-HyP564] |  | fluorescence polarization of reactant with VBC protein compared with probe itself (VBC protein [2]; reacted with VBC protein at 25° C.): remarkably increased |
| F-P564: FITC-aminocaproic acid-labeled HIF-1α 556-575 peptide without hydroxyproline, SEQ ID NO:1 |  | fluorescence polarization value (VBC protein [2]; 100 nM peptide, 800 nM VBC protein, 25° C.): 0.066 |
| ALAPYIPA [N] | only a slight decrease |  |
| DDDFQLR [C] | only a slight decrease |  |
